Holding throughout (assay): DTP human tumour cell line panel, 48 h
The test system of assay [1] is KM12 colon.
Assay [2] relates to SK-MEL-2 melanoma.
Assay [3] concerns SN12C renal.
The subject of assay [4] is HOP-62 NSCLC.
Assay [5] has as its system HOP-92 NSCLC.
Assay [6] deals with COLO 205 colon.
The subject of assay [7] is MOLT-4 leukemia.
Assay [8] has as its system SNB-75 CNS.
Assay [9] deals with DU-145 prostate.
The test system of assay [10] is T-47D breast.

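Interpolation was linear, between the two tested concentrations surrounding the appropriate level; five concentrations were tested over 48 hours in 96-well plates. At the GI50, growth is halved. TGI marks complete inhibition of growth.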 Some results are limits rather than exact numbers.

For orientation: TGI means the concentration giving total growth inhibition. Low values mean more potent growth arrest, high ones less potent growth arrest. As for `COc1ccc2nc3cc(Cl)ccc3c(Sc3ccc(N)cc3)c2c1`, the concentration for total growth inhibition (TGI) in [1] amounted to 19.4 µM; in assay [2] it was 27.7 µM; in assay [3] it was 24 µM; in assay [4] it was 49.8 µM; in assay [5] it was 39.7 µM; in [6] it was 23.3 µM. For the same compound, the concentration for total growth inhibition (TGI) turned out to be 9.65 µM in [7] and 23.2 µM in [8].

The term GI50 denotes the concentration at which growth is held to half of that of the control. Regarding `CN(c1cccc(C(=O)O)c1)c1cc(O/N=[N+](\[O-])N(C)C)c([N+](=O)[O-])cc1[N+](=O)[O-]`, the GI50 in assay [1] is > 100 µM; in assay [2], > 100 µM; in assay [3] it was > 100 µM; in assay [4] it was 46.8 µM; in assay [6], > 100 µM; in assay [9] it was > 100 µM. In addition, the GI50 in assay [7] and in [8] was > 100 µM each time. Besides, the TGI in [1], in assay [2], in assay [3], in [4], in assay [6] and in [9] was > 100 µM throughout. Also, the TGI in [7] and in assay [8] was > 100 µM each time.

Turning to `Cn1c(=O)nc2n(-c3ccc(Br)cc3)c3ccccc3nc-2c1=O`, the TGI was determined as 36.8 µM in [1]; 28.5 µM in [2]; 17.9 µM in assay [3]; 64.8 µM in [4]; 11.1 µM in assay [6]; 28.7 µM in assay [7]. In assay [8], this compound came in with a TGI of 19.4 µM.

`C=CCCC(O)c1cc(C)c(O)c(C)c1` (stereo not given): the TGI in assay [1], in assay [2], in assay [3], in assay [4], in assay [6] and in assay [7] was > 100 µM in each case. Moreover, the TGI in assay [8] was > 100 µM.

Regarding `CCCCC[C@@H]1CCCC2NC(CCCCCO[Si](c3ccccc3)(c3ccccc3)C(C)(C)C)CCC21` (stereo not given in full), the TGI is 25.4 µM in assay [1]; 31 µM in assay [2]; 28.4 µM in [3]; 36.8 µM in [4]; 22.8 µM in [5]; 29.4 µM in [7]. In [8], this compound came in with a TGI of 30 µM.

For `COC1CCCc2c(OC(C)=O)ccc(OC(C)=O)c21` (stereo not given), the TGI is > 100 µM in assay [1]; > 100 µM in assay [2]; > 100 µM in assay [3]; > 100 µM in [4]; 34.1 µM in assay [5]; > 100 µM in assay [7]. For the same compound, in assay [8], the concentration for total growth inhibition (TGI) was > 100 µM.

On to `O=c1[nH]c2nc3ccccc3c(=O)n2nc1Cc1ccccc1`, for which the TGI in [1], in assay [2], in assay [3], in [4], in [6] and in assay [7] was > 100 µM in each case. The TGI in assay [8] was > 100 µM.

For `N#CN1CC[C@@H]2CC3(CCC2C1)OCCO3` (stereo not given in full), the TGI in assay [1], in [2], in assay [3], in assay [4], in assay [5] and in assay [6] was > 100 µM each time. Further, the TGI in [7] and in assay [8] was > 100 µM throughout.

Turning to `O=C(c1ccccc1)c1nc2c(Cl)ccc(Cl)c2cc1C(Br)Br`, the total growth inhibition concentration (TGI) amounted to 2.55 µM in assay [1]; 4.34 µM in [2]; 3.11 µM in assay [4]; 14.5 µM in assay [6]; 7.13 µM in assay [7]; 2.07 µM in [8].

With `C=CC[P@]1(=O)O[C@H](c2ccccc2)C(C)N1C(C)C` (stereo not given in full), the TGI in assay [1], in [2], in [3], in assay [4], in assay [5] and in assay [6] was > 100 µM in each case. In addition, the TGI in [7] and in [8] was > 100 µM throughout.

In the case of `CCOC(=O)c1ccc(N=Cc2ccc(N(CCC#N)S(=O)(=O)c3ccccc3)cc2C)cc1`, the TGI in [1] is > 100 µM; in assay [2], > 100 µM; in [3] it was > 100 µM; in [4] it was > 100 µM; in assay [6] it was 52.9 µM; in [7], > 100 µM. Besides, the TGI in assay [8] is > 100 µM.

Turning to `N.N.N.N.N#N.N#N.[Cl-].[Os+6]`, the GI50 in [1], in assay [2], in assay [3], in [6] and in [8] was > 100 µM throughout. Besides, the total growth inhibition concentration (TGI) in assay [1], in [2], in assay [3], in assay [6] and in assay [8] was > 100 µM throughout.

As to `Cc1c(C)c2cc3c(=O)c(CCl)coc3c(C)c2oc1=O`, the TGI in [1], in [2], in assay [3], in assay [4], in assay [6] and in [7] was > 100 µM throughout. In addition, the TGI in assay [8] is > 100 µM.

Turning to `COc1ccc(CCN2CCCn3c2nc2ccccc2c3=O)cc1`, the GI50 in assay [1] is 0.0445 µM; in assay [3] it was 1.1 µM; in assay [4], 0.084 µM; in assay [5] it was 3.33 µM; in [6] it was 0.0555 µM; in [9], 0.211 µM. In addition, in [7], the GI50 is 0.0779 µM. Besides, the TGI in [1] is > 20.5 µM; in assay [3], > 100 µM; in assay [4], > 61.8 µM; in assay [5], > 95.6 µM; in assay [6] it was 1.13 µM; in assay [9], > 64.8 µM. The TGI in [7] is > 100 µM.

For `COCN1COCN(C)C1=O`, the TGI in assay [1], in [2], in assay [3], in [4], in assay [5] and in [6] was > 100 µM throughout. Besides, the TGI in [8] was > 100 µM.

With `CN(C)CCNC(=O)c1ccc2c(c1)oc1cc3ccccc3c(=O)n12`, the GI50 was 17 µM in assay [1]; 28.7 µM in [2]; 15.4 µM in assay [3]; 16 µM in assay [4]; 9.78 µM in assay [5]; 15.6 µM in assay [6]. Further, the GI50 in [7] was 97.7 µM; in [8], 11.1 µM. In addition, the TGI in assay [1] came out at 45.3 µM; in [2] it was 50.5 µM; in [3] it was 30.6 µM; in assay [4], 30.8 µM; in [5] it was 38.4 µM; in [6] it was 35.6 µM. In addition, the values for the TGI in [7] and in assay [8] were > 100 µM and 27.4 µM, respectively.

As for `COc1ccc2c(c1OC)C(=O)C2`, the TGI in assay [1], in [2], in [3], in [4], in assay [6] and in assay [7] was > 100 µM each time. Moreover, the total growth inhibition concentration (TGI) in [8] was > 100 µM.

With `COC(=O)c1csc(-c2csc(CCNC(=O)OC(C)(C)C)n2)n1`, the TGI in [1], in assay [3], in [4], in assay [5], in assay [6] and in assay [9] was > 100 µM throughout. For the same compound, the TGI in assay [7] and in assay [8] was > 100 µM in each case.

Regarding `O=C(NCCCN1CCN(CCCNC(=O)c2cccc3ccccc23)CC1)c1cccc2ccccc12`, the TGI is > 100 µM in [1]; > 100 µM in assay [2]; > 100 µM in assay [3]; > 100 µM in assay [4]; 21.3 µM in [5]; > 100 µM in [6]. The values for the TGI in assay [7] and in assay [8] were > 100 µM and 41.7 µM, respectively.

On to `O=C(CC1(O)C(=O)Nc2ccccc21)c1ccc(Cl)c(Cl)c1` (stereo not given), for which the TGI in assay [2], in assay [3], in [5], in [6], in assay [7] and in assay [8] was > 100 µM in each case.

For `S=C1SCC2CCCN12` (stereo not given), the TGI in assay [1], in [2], in assay [3], in [4], in assay [5] and in assay [6] was > 100 µM in each case. The TGI in [7] and in [8] was > 100 µM each time.

Regarding `Cc1nc(-n2nc(-c3ccccc3)cc2-c2ccccc2)sc1C(=O)CC(=O)C(=O)Nc1ccc(Cl)c(Cl)c1`, the TGI in [1], in assay [2], in assay [3], in [4], in assay [6] and in assay [7] was > 100 µM throughout. Also, the TGI in assay [8] was > 100 µM.

For the compound `O=C1OC(C(O)CO)C(C(O)CO)OC1=O` (stereo not given), the TGI in assay [1], in assay [3], in assay [4], in assay [6], in assay [10] and in assay [7] was > 10 µM each time.

Regarding `CC1=CC(=O)NP(=O)(Oc2ccc(Cl)cc2)N1` (stereo not given), the concentration for total growth inhibition (TGI) in assay [1], in [2], in assay [3], in assay [4], in assay [5] and in assay [6] was > 100 µM throughout. In addition, the TGI in [7] and in assay [8] was > 100 µM each time.

Consider `CC(C)(C)C1=CC(=N/N=c2\scc(-c3ccccc3)n2Cc2ccccc2)C=C(C(C)(C)C)C1=O`, for which the TGI in assay [2], in [3], in assay [4], in assay [6], in assay [7] and in assay [8] was > 100 µM in each case.

With `CC(=O)OC1(Sc2ccccc2)CC2[C@H]3COC(C)(C)O[C@H]3CC[C@@]2(C)CC1=O` (stereo not given in full), the TGI in assay [1] was > 100 µM; in assay [2], > 100 µM; in assay [3], > 100 µM; in assay [5] it was 86.1 µM; in assay [6] it was > 100 µM; in assay [7] it was > 100 µM. Further, in assay [8], the TGI stood at 81.4 µM.

Consider `COc1ccc(-c2cc(=O)c3c(O)c(O)c(OC)cc3o2)cc1O`, for which the TGI in [1], in [2], in assay [3], in assay [4], in assay [5] and in assay [6] was > 100 µM throughout. Besides, the concentration for total growth inhibition (TGI) in assay [7] and in assay [8] was > 100 µM each time.

Consider `Cc1nc2ccccc2c(=O)n1/N=C(\N=Nc1ccc(Cl)cc1)c1cccc(-c2ccco2)c1`, for which the TGI is > 100 µM in [3]; 62.6 µM in [4]; 55.4 µM in [5]; 89.4 µM in assay [6]; > 100 µM in assay [7].

Consider `CC(C)(C)c1cc(C2c3cc4c(cc3OC(O)(CO)C2C(=O)O)OCO4)cc(C(C)(C)C)c1O` (stereo not given) (tested in a mixture with another compound), for which the TGI in assay [3] turned out to be 31 µM; in assay [4] it was 53.1 µM; in [5] it was 43.7 µM; in assay [6] it was 37.8 µM; in [7], 20.3 µM; in assay [8], 22.8 µM.

In the case of `Cc1cccc(NC(=O)c2c(N)[n+]([O-])c3ccccc3[n+]2[O-])c1`, the TGI in assay [1] was found to be 30.3 µM; in assay [2], 23.3 µM; in assay [3], 17 µM; in assay [4] it was 31.3 µM; in [5], 29.5 µM; in [6], 27.2 µM. The figures for the TGI in [7] and in assay [8] were 81 µM and 30.2 µM, respectively.

As to `CC1(Cl)C(=O)NC(=O)N([C@H]2C[C@H](O)[C@@H](CO)O2)C1N=[N+]=[N-]` (stereo not given in full), the TGI in assay [1], in [2], in [3], in assay [4], in [5] and in assay [6] was > 100 µM in each case. Besides, the TGI in assay [7] and in assay [8] was > 100 µM throughout.

For the compound `O=C(n1c2ccccc2c2n[nH]c(=S)nc21)C(F)(F)F`, the TGI in assay [1], in assay [3], in assay [4], in assay [5], in assay [6] and in [7] was > 100 µM in each case. Also, in [8], the TGI was > 100 µM.

These data come from PubChem BioAssay (NCI).
